Experimental data published in patent publication US9040547B2, “Pyrrolopyrimidine and purine derivatives” (PFIZER INC., priority 2011, dated 2015).
Structures can show the parent of a compound that is named as a salt.

Tests used:
Format in all cases: cell-based
EGFR L858R+T790M = EGFR L858R+T790M (Homo sapiens, UniProt P00533, L858R/T790M); assay: pEGFR Y1068 ELISA assay, NIH3T3/EGFR_L858R+T790M cells; details: 3T3 cell line, 2 hrs compound treatment; read-out: pEGFRY1068 ELISA3T3T790M—L858R IC50;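 also: sandwich ELISA of EGFR phosphorylated at Tyr1068 in lysates of stably transfected NIH/3T3 cells, 11-point threefold dilution series run in duplicate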
EGFR L858R = EGFR L858R (Homo sapiens, UniProt P00533, L858R); assay: pEGFR Y1068 ELISA assay, NIH3T3/EGFR_L858R cells; details: 3T3 cell line, 2 hrs compound treatment; read-out: pEGFRY1068 ELISA3T3 L858R IC50;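 also: sandwich ELISA of phospho-EGFR Tyr1068 in lysates of stably transfected NIH/3T3 pools after 2 h compound exposure at 37 °C, 11-point threefold dilution series run in duplicate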
[1] = molecular target: T1, EGFR wildtype, endogenous (Homo sapiens, UniProt P00533); assay: pEGFR Y1068 ELISA assay, A549 cells; details: full serum media, stimulated 10 min with EGF (40 ng/mL), read-out: pEGFRY1068 ELISAA549 IC50;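 also: sandwich ELISA of phospho-EGFR Tyr1068 in cell lysates, cells exposed to compound for 2 h before EGF stimulation, 11-point threefold dilution series run in duplicate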
T1 construct: A549 (EGFR wildtype, endogenous); host or cells: A549

EGFR E746-A750 deletion = EGFR E746-A750 deletion (Homo sapiens, UniProt P00533, DEL746-750); assay: pEGFR Y1068 ELISA assay, NIH3T3/EGFR_E746-A750 deletion cells; details: 3T3 Del cells, 2 hrs compound treatment; read-out: ELISA7E 3T3 Del IC50;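 also: sandwich ELISA on cell lysates detecting phospho-EGFR at Tyr1068, compounds run as 11-point threefold dilution series in duplicate, IC50 from inhibition of this phosphorylation signal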
NIH3T3/EGFR_L858R = assay: Cell proliferation assay (CellTiter-Glo), NIH3T3/EGFR_L858R; details: Mus musculus, NIH3T3, 120 h, 3T3 cell line, three to five days of compound treatment, read-out: 3T3 L858R IC50
Method: (§1) Cell proliferation was measured using the CellTiter-Glo® Luminescent Cell Viability Assay. The assay involves the addition of a single reagent (CellTiter-Glo® Reagent) directly to cells cultured in serum-supplemented medium. The assay uses this one-step addition to induce cell lysis and generate a luminescent signal proportional to the amount of ATP present which is directly proportional to the number of metabolically active cells present in culture. The following cell lines were evaluated in this assay: NIH3T3/EGFR_L858R, NIH3T3/EGFR_E746-A750_deletion, NIH3T3/EGFR L858R+T790M, NIH3T3/EGFR_E746-A750_deletion+T790M, PC-9, PC9-DRH, NCI-H1975, and NCI-H3255. NIH/3T3 parental cells, NCI-H1975, and NCI-H3255 were purchased from the American Type Culture Collection (Manassas, Va.), and PC-9 cells were obtained from Japan. All cells were cultured according to recommendations. NIH/3T3 cells were grown in DMEM (Invitrogen, Carlsbad, Calif.) supplemented with 10% newborn calf serum (Invitrogen), and NIH3T3/EGFR mutant cells were grown in complete media with 5 μg/mL puromycin (Invitrogen). PC-9, NCI-H1975, and NCI-H3255 were grown in RPMI (Invitrogen, Carlsbad, Calif.) supplemented with 10% FBS (Sigma, St Louis, Mo.), and PC9-DRH cells were grown in complete media with 2 uM PF-00299804. Plasmids (pLPCX) with various EGFR constructs were made by GenScript (Piscataway, N.J.), and stable pools of NIH/3T3 cells expressing these constructs were made at Pfizer La Jolla. PC9-DRH cells were generated at Pfizer La Jolla by exposing cells to increasing concentrations of PF-00299804. Cells were plated in complete culture media (3000-5000 cells/well, 50 μl/well) on the bottom of white clear-bottom tissue culture treated microtiter plates (#3610, Corning Inc, Corning, N.Y.) and allowed to adhere overnight at 37° C., 5% CO2. The following day, compound dilution plates were prepared in 96 well clear V-bottom 0.5 mL polypropylene block plates (#3956, Corning, Inc). All cell lines were not evaluated for each compound. Each compound evaluated was prepared as a DMSO stock solution (10 mM). Compounds were tested in duplicate on each plate, with an 11-point serial dilution curve (1:3 dilution). Compound treatment (50 μl) was added from the compound dilution plate to the cell plate. The highest compound concentration was 1 or 10 μM (final), with a 0.3% final DMSO (#D-5879, Sigma, St Louis, Mo.) concentration. Plates were then incubated at 37° C., 5% CO2. After three to five days of compound treatment, CellTiter-Glo® Reagent (#G7573, Promega, Madison, Wis.) was prepared in one of two ways. If thawing a frozen aliquot of CellTiter-Glo® Reagent, the aliquot was thawed and equilibrated to room temperature prior to use while keeping it protected from light. Alternatively, new bottles of CellTiter-Glo® Buffer and CellTiter-Glo® Substrate were thawed and equilibrated to room temperature prior to use. CellTiter-Glo® Buffer (100 mL) was transferred into the amber bottle containing CellTiter-Glo® Substrate to reconstitute the lyophilized enzyme/substrate mixture, forming the CellTiter-Glo® Reagent. The reconstituted reagent was mixed by gently inverting the contents to obtain a homogeneous solution, and went into solution easily in less than one minute. Any unused reconstituted CellTiter-Glo® Reagent was immediately aliquoted and frozen at −20° C., protected from light. Cell plates were equilibrated at room temperature for approximately 30 minutes. An equivolume amount of CellTiter-Glo® Reagent (100 μL) was added to each well. Plates were mixed for two minutes on an orbital shaker to induce cell lysis, and then allowed to incubate at room temperature for 10 minutes to stabilize the luminescent signal. Luminescence was recorded using the PerkinElmer EnVision Excite Multilabel Reader used for endpoint reading for Luminescence detection (Waltham, Mass.). Data were analyzed using a four-parameter fit in Microsoft Excel. […]

[2] = tested on: NIH3T3/EGFR_E746-A750_deletion; assay: Cell proliferation assay (CellTiter-Glo), NIH3T3/EGFR_E746-A750_deletion; details: Mus musculus, NIH3T3, 120 h, 3T3 cell line, three to five days of compound treatment, read-out: 3T3 del IC50
Method: as §1

NIH3T3/EGFR L858R+T790M = assay: Cell proliferation assay (CellTiter-Glo), NIH3T3/EGFR L858R+T790M; details: Mus musculus, NIH3T3, 120 h, 3T3 cell line, three to five days of compound treatment, read-out: 3T3 L858R_T790M IC50
[3] = tested on: NIH3T3/EGFR_E746-A750_deletion+T790M; assay: Cell proliferation assay (CellTiter-Glo), NIH3T3/EGFR_E746-A750_deletion+T790M; details: Mus musculus, NIH3T3, 120 h, 3T3 cell line, three to five days of compound treatment, read-out: 3T3 del_T790M IC50
Method: as §1

Sequence of EGFR L858R+T790M (P00533 25-1210 T790M/L858R): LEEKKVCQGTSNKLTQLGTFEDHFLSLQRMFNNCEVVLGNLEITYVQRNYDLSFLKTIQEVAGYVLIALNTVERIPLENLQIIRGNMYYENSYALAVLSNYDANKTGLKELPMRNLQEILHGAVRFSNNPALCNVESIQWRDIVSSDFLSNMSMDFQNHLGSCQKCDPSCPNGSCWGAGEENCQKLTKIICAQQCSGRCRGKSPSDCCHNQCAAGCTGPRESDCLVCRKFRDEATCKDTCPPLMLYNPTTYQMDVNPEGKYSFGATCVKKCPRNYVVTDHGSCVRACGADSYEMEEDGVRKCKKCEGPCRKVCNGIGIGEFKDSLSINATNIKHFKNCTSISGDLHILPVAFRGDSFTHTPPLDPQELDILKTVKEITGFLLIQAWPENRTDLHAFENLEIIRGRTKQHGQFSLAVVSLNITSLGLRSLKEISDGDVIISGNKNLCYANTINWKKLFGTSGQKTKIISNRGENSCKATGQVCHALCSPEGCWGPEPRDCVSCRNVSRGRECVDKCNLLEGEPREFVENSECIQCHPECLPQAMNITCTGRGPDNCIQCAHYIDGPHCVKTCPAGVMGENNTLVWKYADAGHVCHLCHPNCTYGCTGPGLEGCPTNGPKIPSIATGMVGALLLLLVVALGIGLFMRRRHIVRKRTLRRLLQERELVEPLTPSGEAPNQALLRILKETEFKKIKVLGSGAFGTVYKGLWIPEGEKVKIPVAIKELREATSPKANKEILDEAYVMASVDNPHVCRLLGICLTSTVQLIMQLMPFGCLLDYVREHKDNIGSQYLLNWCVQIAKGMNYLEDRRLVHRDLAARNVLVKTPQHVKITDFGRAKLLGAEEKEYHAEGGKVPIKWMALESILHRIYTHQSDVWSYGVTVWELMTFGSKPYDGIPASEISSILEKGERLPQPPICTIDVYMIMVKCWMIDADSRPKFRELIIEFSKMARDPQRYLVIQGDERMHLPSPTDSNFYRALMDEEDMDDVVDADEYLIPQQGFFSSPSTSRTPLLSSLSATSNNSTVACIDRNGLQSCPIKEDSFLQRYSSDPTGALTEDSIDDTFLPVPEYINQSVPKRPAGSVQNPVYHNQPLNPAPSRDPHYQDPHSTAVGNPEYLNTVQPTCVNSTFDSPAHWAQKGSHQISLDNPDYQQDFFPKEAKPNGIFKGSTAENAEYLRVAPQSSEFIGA
Sequence of EGFR L858R (P00533 25-1210 L858R): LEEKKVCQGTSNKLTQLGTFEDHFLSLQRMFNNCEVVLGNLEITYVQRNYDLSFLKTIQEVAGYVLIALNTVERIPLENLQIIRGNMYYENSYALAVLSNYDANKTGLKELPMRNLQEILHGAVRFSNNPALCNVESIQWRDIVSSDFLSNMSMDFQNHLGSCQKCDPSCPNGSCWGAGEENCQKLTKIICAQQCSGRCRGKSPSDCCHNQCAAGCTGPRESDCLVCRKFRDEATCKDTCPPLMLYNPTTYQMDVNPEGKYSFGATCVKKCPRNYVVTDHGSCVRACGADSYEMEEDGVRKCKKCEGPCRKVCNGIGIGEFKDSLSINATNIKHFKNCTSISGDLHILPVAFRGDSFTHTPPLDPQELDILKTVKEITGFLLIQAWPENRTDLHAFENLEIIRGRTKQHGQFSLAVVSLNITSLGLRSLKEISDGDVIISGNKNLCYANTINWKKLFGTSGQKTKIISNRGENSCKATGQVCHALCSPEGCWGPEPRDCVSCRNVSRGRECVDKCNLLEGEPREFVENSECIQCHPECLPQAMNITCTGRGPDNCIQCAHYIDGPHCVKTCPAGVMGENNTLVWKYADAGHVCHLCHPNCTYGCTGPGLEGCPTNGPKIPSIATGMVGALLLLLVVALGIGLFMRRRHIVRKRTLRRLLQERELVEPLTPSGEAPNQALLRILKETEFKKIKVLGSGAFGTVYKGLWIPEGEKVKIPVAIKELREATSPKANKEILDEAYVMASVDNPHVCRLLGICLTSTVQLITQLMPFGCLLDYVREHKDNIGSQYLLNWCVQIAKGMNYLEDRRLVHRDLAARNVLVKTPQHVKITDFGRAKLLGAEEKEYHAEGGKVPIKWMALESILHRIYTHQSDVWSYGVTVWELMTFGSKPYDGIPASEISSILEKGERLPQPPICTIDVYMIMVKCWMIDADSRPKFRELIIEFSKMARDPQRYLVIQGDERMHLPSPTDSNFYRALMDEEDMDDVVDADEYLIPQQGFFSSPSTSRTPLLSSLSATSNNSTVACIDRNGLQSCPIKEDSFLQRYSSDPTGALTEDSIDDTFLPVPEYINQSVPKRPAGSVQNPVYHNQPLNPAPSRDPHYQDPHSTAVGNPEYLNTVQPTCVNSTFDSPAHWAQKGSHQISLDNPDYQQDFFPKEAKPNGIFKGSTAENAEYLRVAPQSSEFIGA
Sequence of EGFR E746-A750 deletion (P00533 with tags, fused parts or gaps DEL746-750): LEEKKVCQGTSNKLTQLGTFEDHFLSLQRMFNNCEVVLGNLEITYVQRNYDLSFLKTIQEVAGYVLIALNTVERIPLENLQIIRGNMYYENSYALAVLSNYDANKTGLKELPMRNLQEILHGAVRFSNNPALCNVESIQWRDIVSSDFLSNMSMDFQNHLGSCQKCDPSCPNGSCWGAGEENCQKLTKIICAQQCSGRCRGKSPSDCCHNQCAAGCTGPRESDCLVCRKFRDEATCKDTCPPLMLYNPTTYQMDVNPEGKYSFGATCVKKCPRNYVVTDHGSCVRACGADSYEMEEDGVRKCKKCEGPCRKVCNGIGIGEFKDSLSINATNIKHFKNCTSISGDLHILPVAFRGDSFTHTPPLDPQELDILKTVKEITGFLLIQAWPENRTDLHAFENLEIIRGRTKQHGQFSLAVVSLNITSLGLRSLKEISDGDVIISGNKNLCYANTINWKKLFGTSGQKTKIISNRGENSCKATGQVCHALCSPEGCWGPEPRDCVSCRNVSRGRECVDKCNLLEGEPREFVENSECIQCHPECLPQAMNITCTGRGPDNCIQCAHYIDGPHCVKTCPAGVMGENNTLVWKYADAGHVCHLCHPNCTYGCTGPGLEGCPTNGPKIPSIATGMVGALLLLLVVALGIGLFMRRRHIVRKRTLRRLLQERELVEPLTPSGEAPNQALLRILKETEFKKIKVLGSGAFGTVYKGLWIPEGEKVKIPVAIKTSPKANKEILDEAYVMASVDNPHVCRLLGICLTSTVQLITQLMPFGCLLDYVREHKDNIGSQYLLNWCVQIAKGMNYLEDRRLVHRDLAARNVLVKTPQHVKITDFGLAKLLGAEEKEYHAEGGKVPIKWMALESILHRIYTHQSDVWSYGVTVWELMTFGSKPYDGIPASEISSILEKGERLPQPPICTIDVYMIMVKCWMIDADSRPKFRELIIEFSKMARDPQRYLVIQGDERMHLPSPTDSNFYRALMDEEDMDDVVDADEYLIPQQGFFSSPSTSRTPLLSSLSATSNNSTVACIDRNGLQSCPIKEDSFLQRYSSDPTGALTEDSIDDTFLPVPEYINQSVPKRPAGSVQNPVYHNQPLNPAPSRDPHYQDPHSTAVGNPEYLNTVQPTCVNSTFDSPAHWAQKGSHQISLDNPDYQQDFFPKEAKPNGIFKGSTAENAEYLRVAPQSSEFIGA
T1 sequence (P00533 25-1210): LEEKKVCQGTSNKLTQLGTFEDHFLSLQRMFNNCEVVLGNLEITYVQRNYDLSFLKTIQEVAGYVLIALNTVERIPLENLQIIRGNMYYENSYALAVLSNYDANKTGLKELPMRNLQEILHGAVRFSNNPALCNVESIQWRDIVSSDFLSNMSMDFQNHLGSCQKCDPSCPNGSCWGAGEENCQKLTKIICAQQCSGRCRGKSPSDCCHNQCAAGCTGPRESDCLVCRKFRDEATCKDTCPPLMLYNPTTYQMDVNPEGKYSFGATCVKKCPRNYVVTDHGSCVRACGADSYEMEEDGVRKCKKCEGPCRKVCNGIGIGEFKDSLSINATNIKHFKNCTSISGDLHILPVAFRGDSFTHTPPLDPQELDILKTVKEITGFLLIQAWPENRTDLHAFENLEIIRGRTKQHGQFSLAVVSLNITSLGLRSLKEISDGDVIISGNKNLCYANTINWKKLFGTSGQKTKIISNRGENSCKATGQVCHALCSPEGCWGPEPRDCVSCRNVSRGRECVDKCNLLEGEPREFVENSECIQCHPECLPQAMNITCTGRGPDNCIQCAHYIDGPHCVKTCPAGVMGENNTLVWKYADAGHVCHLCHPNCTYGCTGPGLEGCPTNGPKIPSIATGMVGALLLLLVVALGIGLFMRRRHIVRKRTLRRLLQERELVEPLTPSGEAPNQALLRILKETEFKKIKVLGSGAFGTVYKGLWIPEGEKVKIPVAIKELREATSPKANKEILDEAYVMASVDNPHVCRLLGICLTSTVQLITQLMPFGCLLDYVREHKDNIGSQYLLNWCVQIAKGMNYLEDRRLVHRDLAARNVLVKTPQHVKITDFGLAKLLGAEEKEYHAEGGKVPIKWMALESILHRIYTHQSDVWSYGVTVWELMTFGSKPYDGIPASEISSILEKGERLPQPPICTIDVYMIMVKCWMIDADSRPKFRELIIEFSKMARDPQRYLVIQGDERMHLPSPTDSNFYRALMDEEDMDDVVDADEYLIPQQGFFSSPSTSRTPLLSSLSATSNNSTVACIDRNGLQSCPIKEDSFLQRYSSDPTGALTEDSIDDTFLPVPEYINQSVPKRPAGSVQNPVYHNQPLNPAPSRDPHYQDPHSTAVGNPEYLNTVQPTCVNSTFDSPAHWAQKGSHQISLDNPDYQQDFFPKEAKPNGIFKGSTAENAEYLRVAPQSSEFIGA

C=CC(=O)N1C[C@H](COc2nc(Nc3cnn(C)c3)nc3[nH]cc(Cl)c23)[C@@H]([C@H](C)O)C1 (single isomer, unassigned) [Example 10]
IC50 (EGFR L858R+T790M): 80 nM
IC50 (EGFR L858R): 1810 nM
IC50 [1]: > 10 µM
IC50 (EGFR E746-A750 deletion): 1020 nM
IC50 (NIH3T3/EGFR_L858R): > 1000 nM
IC50 [2]: 100 to 1000 nM
IC50 (NIH3T3/EGFR L858R+T790M): > 1000 nM
IC50 [3]: 10 to 100 nM

C=CC(=O)Nc1cccc(Oc2nc(Nc3cnn(CCN(C)C)c3)nc3[nH]ccc23)c1 [Example 2, N-(3-{[2-({1-[2-(dimethylamino)ethyl]-1H-pyrazol-4-yl}amino)-7H-pyrrolo[2,3-d]pyrimidin-4-yl]oxy}phenyl)prop-2-enamide]
IC50 (EGFR L858R+T790M): 11 nM
IC50 (EGFR L858R): 141 nM
IC50 [1]: 2.92 µM
IC50 (EGFR E746-A750 deletion): 29 nM
IC50 (NIH3T3/EGFR_L858R): 100 to 1000 nM
IC50 [2]: < 10 nM
IC50 (NIH3T3/EGFR L858R+T790M): < 10 nM
IC50 [3]: < 10 nM

C=CC(=O)N1C[C@H](COc2nc(Nc3cnn(C)c3)nc3[nH]cc(Cl)c23)[C@@H](OC)C1 [Example 9, 1-{(3R,4R)-3-[5-chloro-2-(1-methyl-1H-pyrazol-4-ylamino)-7H-pyrrolo[2,3-d]pyrimidin-4-yloxymethyl]-4-methoxy-pyrrolidin-1-yl}propenone trifluoroacetate]
IC50 (NIH3T3/EGFR_L858R): 100 to 1000 nM
IC50 [2]: 10 to 100 nM
IC50 (NIH3T3/EGFR L858R+T790M): 100 to 1000 nM
IC50 [3]: < 10 nM

C=CC(=O)Nc1cccc(Oc2nc(Nc3ccn(C)n3)nc3[nH]cc(Cl)c23)c1 [Example 21]
IC50 (EGFR L858R+T790M): 13 nM
IC50 (EGFR L858R): 202 nM
IC50 [1]: 7.85 µM
IC50 (EGFR E746-A750 deletion): 33 nM
IC50 (NIH3T3/EGFR_L858R): > 1000 nM
IC50 [2]: 10 to 100 nM
IC50 (NIH3T3/EGFR L858R+T790M): 10 to 100 nM
IC50 [3]: < 10 nM

C=CC(=O)Nc1cccc(Oc2nc(Nc3ccn(CC)n3)nc3[nH]ccc23)c1 [Example 22]
IC50 (EGFR L858R+T790M): 11 nM
IC50 (EGFR L858R): 81 nM
IC50 [1]: > 10 µM
IC50 (EGFR E746-A750 deletion): 27 nM
IC50 (NIH3T3/EGFR_L858R): 100 to 1000 nM
IC50 [2]: < 10 nM
IC50 (NIH3T3/EGFR L858R+T790M): 10 to 100 nM
IC50 [3]: < 10 nM

C=CC(=O)Nc1cccc(Oc2nc(Nc3cnn(C(C)C)c3)nc3[nH]ccc23)c1 [Example 31]
IC50 (EGFR L858R+T790M): 11 nM
IC50 (EGFR L858R): 105 nM
IC50 [1]: 0.947 µM
IC50 (NIH3T3/EGFR_L858R): > 1000 nM
IC50 [2]: 10 to 100 nM
IC50 (NIH3T3/EGFR L858R+T790M): 10 to 100 nM
IC50 [3]: 10 to 100 nM

C=CC(=O)Nc1cccc(Oc2nc(Nc3cn(C)nc3C(F)(F)F)nc3[nH]ccc23)c1 [Example 32]
IC50 (EGFR L858R+T790M): 9 nM
IC50 (EGFR L858R): 47 nM
IC50 [1]: 1.34 µM
IC50 (EGFR E746-A750 deletion): 98 nM
IC50 (NIH3T3/EGFR_L858R): > 1000 nM
IC50 [2]: 10 to 100 nM
IC50 (NIH3T3/EGFR L858R+T790M): 10 to 100 nM
IC50 [3]: < 10 nM

C=CC(=O)Nc1cccc(Oc2nc(Nc3cnn(C4CCN(C)C4)c3)nc3[nH]ccc23)c1 (stereo not shown) [Example 34]
IC50 (EGFR L858R+T790M): 14 nM
IC50 (EGFR L858R): 170 nM
IC50 [1]: 4.03 µM
IC50 (NIH3T3/EGFR_L858R): 100 to 1000 nM
IC50 [2]: < 10 nM
IC50 (NIH3T3/EGFR L858R+T790M): 10 to 100 nM
IC50 [3]: < 10 nM

C=CC(=O)Nc1cccc(Oc2nc(Nc3cnn(C)c3)nc3[nH]ccc23)c1 [Example 35]
IC50 (NIH3T3/EGFR_L858R): 100 to 1000 nM
IC50 [2]: < 10 nM
IC50 (NIH3T3/EGFR L858R+T790M): < 10 nM
IC50 [3]: < 10 nM

C=CC(=O)Nc1cccc(Oc2nc(Nc3ccn(C)n3)nc3[nH]cc(C#N)c23)c1 [Example 36]
IC50 (EGFR L858R+T790M): 20 nM
IC50 (EGFR L858R): 418 nM
IC50 [1]: > 10 µM
IC50 (EGFR E746-A750 deletion): 45 nM
IC50 (NIH3T3/EGFR_L858R): > 1000 nM
IC50 [2]: 10 to 100 nM
IC50 (NIH3T3/EGFR L858R+T790M): 100 to 1000 nM
IC50 [3]: 10 to 100 nM

C=CC(=O)N1CC[C@@H](COc2nc(Nc3cnn(C)c3)nc3[nH]cc(Cl)c23)C1 [Example 64]
IC50 (NIH3T3/EGFR_L858R): 10 to 100 nM
IC50 [2]: < 10 nM
IC50 (NIH3T3/EGFR L858R+T790M): 10 to 100 nM
IC50 [3]: < 10 nM

C=CC(=O)N1C[C@H](COc2nc(Nc3cnn([C@@H]4CCOC4)c3)nc3[nH]cc(Cl)c23)[C@@H](OC)C1 [Example 72]
IC50 (NIH3T3/EGFR_L858R): 100 to 1000 nM
IC50 [2]: 100 to 1000 nM
IC50 (NIH3T3/EGFR L858R+T790M): 100 to 1000 nM
IC50 [3]: 10 to 100 nM

C=CC(=O)N1C[C@H](COC)[C@@H](COc2nc(Nc3cnn(C)c3)nc3[nH]cc(Cl)c23)C1 [Example 74]
IC50 (NIH3T3/EGFR_L858R): 100 to 1000 nM
IC50 [2]: 10 to 100 nM
IC50 (NIH3T3/EGFR L858R+T790M): 100 to 1000 nM
IC50 [3]: 10 to 100 nM

C=CC(=O)N(C)[C@H]1C[C@H](Oc2nc(Nc3cnn(CC(O)CN(C)C)c3)nc3[nH]cc(Cl)c23)C1 (stereo partly shown) [Example 75]
IC50 (EGFR L858R+T790M): 69 nM
IC50 (EGFR L858R): 3550 nM
IC50 [1]: > 10 µM
IC50 (NIH3T3/EGFR_L858R): > 1000 nM
IC50 [2]: 100 to 1000 nM
IC50 (NIH3T3/EGFR L858R+T790M): 100 to 1000 nM
IC50 [3]: 10 to 100 nM

C=CC(=O)N1CCOC2(CCN(c3nc(Nc4cnn(C)c4)nc4[nH]cc(Cl)c34)C2)C1 (stereo not shown) [Example 76]
IC50 (EGFR L858R+T790M): 26 nM
IC50 (EGFR L858R): 855 nM
IC50 [1]: > 10 µM
IC50 (NIH3T3/EGFR_L858R): > 1000 nM
IC50 [2]: 100 to 1000 nM
IC50 (NIH3T3/EGFR L858R+T790M): 100 to 1000 nM
IC50 [3]: 100 to 1000 nM

C=CC(=O)N1CC(Oc2nc(Nc3cnn(C)c3)nc3[nH]cc(Cl)c23)C1 [Example 105]
IC50 (EGFR L858R+T790M): 37 nM
IC50 (EGFR L858R): 490 nM
IC50 [1]: > 10 µM
IC50 (NIH3T3/EGFR_L858R): 100 to 1000 nM
IC50 [2]: 100 to 1000 nM
IC50 (NIH3T3/EGFR L858R+T790M): 100 to 1000 nM
IC50 [3]: 100 to 1000 nM
